Experimental data published in ChEMBL document CHEMBL1201862, “PubChem BioAssay data set” (2004).
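Test compounds were applied to cells in 96-well plates for 48 hours at 5 doses. At the GI50, growth is halved.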 The source made the active and inactive calls. No stated cut-off is given here; in the data, active = GI50 up to about 1.1 µM and inactive = higher.

Experiments:
Assay in all cases: growth of human tumour cells (NCI), 48 h
TK-10 = tested on: TK-10
SK-MEL-5 = tested on: SK-MEL-5
A549 = tested on: A549
HCT-116 = tested on: HCT-116
MDA-N = tested on: MDA-N
SW-620 = tested on: SW-620
U-251 = tested on: U-251
RXF 393 = tested on: RXF 393
SF-268 = tested on: SF-268
DU-145 = tested on: DU-145
HT-29 = tested on: HT-29
NCI-H522 = tested on: NCI-H522
Hs-578T = tested on: Hs-578T
CCRF-CEM = tested on: CCRF-CEM
IGROV-1 = tested on: IGROV-1
LOX IMVI = tested on: LOX IMVI
OVCAR-5 = tested on: OVCAR-5
MOLT-4 = tested on: MOLT-4
SF-295 = tested on: SF-295
UACC-257 = tested on: UACC-257
SF-539 = tested on: SF-539
NCI-H23 = tested on: NCI-H23
OVCAR-3 = tested on: OVCAR-3
MDA-MB-435 = tested on: MDA-MB-435
Malme-3M = tested on: Malme-3M
MDA-MB-231 = tested on: MDA-MB-231
T47D = tested on: T47D
NCI-H226 = tested on: NCI-H226
COLO 205 = tested on: COLO 205
RPMI-8226 = tested on: RPMI-8226
OVCAR-8 = tested on: OVCAR-8
BT-549 = tested on: BT-549
UACC-62 = tested on: UACC-62
PC-3 = tested on: PC-3
EKVX = tested on: EKVX
HOP-92 = tested on: HOP-92
KM12 = tested on: KM12
ACHN = tested on: ACHN
SNB-19 = tested on: SNB-19
HL-60 = tested on: HL-60
NCI/ADR-RES = tested on: NCI/ADR-RES
SK-MEL-2 = tested on: SK-MEL-2
NCI-H460 = tested on: NCI-H460
UO-31 = tested on: UO-31
SR = tested on: SR
SN12C = tested on: SN12C
CAKI-1 = tested on: CAKI-1
M14 = tested on: M14
OVCAR-4 = tested on: OVCAR-4
HCT-15 = tested on: HCT-15
HOP-62 = tested on: HOP-62
K562 = tested on: K562
MCF7 = tested on: MCF7
SK-OV-3 = tested on: SK-OV-3

Q: How did the GI50 (TK-10) turn out when `O=c1cc(-c2nc3ccccc3[nH]2)[nH]c2nc(-c3nc4ccccc4[nH]3)cc(-c3ccc(Cl)cc3)c12` was run?
A: The GI50 was 19.4 µM (inactive).

Q: And the GI50 (SK-MEL-5)?
A: The GI50 was 15.7 µM (inactive).

Q: And the GI50 (A549)?
A: Its GI50 is 24.4 µM (inactive).

Q: And the GI50 (HCT-116)?
A: Its GI50 is 17 µM (inactive).

Q: What about the GI50 (MDA-N) of the same molecule?
A: The GI50 was 20.5 µM (inactive).

Q: And the GI50 (SW-620)?
A: Its GI50 is 21.5 µM (inactive).

Q: What about the GI50 (U-251) of the same molecule?
A: The GI50 was 16.1 µM (inactive).

Q: And the GI50 (RXF 393)?
A: The GI50 was 14.5 µM (inactive).

Q: And the GI50 (SF-268)?
A: Its GI50 is 15.8 µM (inactive).

Q: What about the GI50 (DU-145) of the same molecule?
A: Its GI50 is 32.8 µM (inactive).

Q: And the GI50 (HT-29)?
A: Its GI50 is 20 µM (inactive).

Q: What about the GI50 (NCI-H522) of the same molecule?
A: Its GI50 is 6.27 µM (inactive).

Q: And the GI50 (Hs-578T)?
A: The GI50 was 30.5 µM (inactive).

Q: What about the GI50 (CCRF-CEM) of the same molecule?
A: Its GI50 is 24.7 µM (inactive).

Q: And the GI50 (IGROV-1)?
A: Its GI50 is 1.42 µM (inactive).

Q: And the GI50 (LOX IMVI)?
A: Its GI50 is 15.5 µM (inactive).

Q: What about the GI50 (OVCAR-5) of the same molecule?
A: Its GI50 is 29 µM (inactive).

Q: And the GI50 (MOLT-4)?
A: The GI50 was 19.4 µM (inactive).

Q: And the GI50 (SF-295)?
A: Its GI50 is 21.5 µM (inactive).

Q: And the GI50 (UACC-257)?
A: The GI50 was 23.7 µM (inactive).

Q: And the GI50 (SF-539)?
A: The GI50 was 15.9 µM (inactive).

Q: And the GI50 (NCI-H23)?
A: Its GI50 is 40.2 µM (inactive).

Q: What about the GI50 (OVCAR-3) of the same molecule?
A: The GI50 was 19.3 µM (inactive).

Q: What about the GI50 (MDA-MB-435) of the same molecule?
A: Its GI50 is 15.7 µM (inactive).

Q: And the GI50 (Malme-3M)?
A: Its GI50 is 23 µM (inactive).

Q: What about the GI50 (MDA-MB-231) of the same molecule?
A: The GI50 was 15.8 µM (inactive).

Q: What about the GI50 (T47D) of the same molecule?
A: Its GI50 is 14.4 µM (inactive).

Q: What about the GI50 (NCI-H226) of the same molecule?
A: Its GI50 is 16.9 µM (inactive).

Q: What about the GI50 (COLO 205) of the same molecule?
A: The GI50 was 12.1 µM (inactive).

Q: What about the GI50 (RPMI-8226) of the same molecule?
A: Its GI50 is 11.5 µM (inactive).

Q: What about the GI50 (OVCAR-8) of the same molecule?
A: Its GI50 is 28.6 µM (inactive).

Q: What about the GI50 (BT-549) of the same molecule?
A: Its GI50 is 35.9 µM (inactive).

Q: What about the GI50 (UACC-62) of the same molecule?
A: The GI50 was 14 µM (inactive).

Q: And the GI50 (PC-3)?
A: The GI50 was 19.5 µM (inactive).

Q: What about the GI50 (EKVX) of the same molecule?
A: The GI50 was 23.3 µM (inactive).

Q: What about the GI50 (HOP-92) of the same molecule?
A: Its GI50 is 5.52 µM (inactive).

Q: What about the GI50 (KM12) of the same molecule?
A: Its GI50 is 22 µM (inactive).

Q: And the GI50 (ACHN)?
A: The GI50 was 16.6 µM (inactive).

Q: And the GI50 (SNB-19)?
A: Its GI50 is 46.3 µM (inactive).

Q: And the GI50 (HL-60)?
A: Its GI50 is 24.9 µM (inactive).

Q: And the GI50 (NCI/ADR-RES)?
A: Its GI50 is 28.4 µM (inactive).

Q: What about the GI50 (SK-MEL-2) of the same molecule?
A: Its GI50 is 12.2 µM (inactive).

Q: What about the GI50 (NCI-H460) of the same molecule?
A: Its GI50 is 16.3 µM (inactive).

Q: And the GI50 (UO-31)?
A: Its GI50 is 11.2 µM (inactive).

Q: What about the GI50 (SR) of the same molecule?
A: Its GI50 is 15.2 µM (inactive).

Q: What about the GI50 (SN12C) of the same molecule?
A: The GI50 was 16.5 µM (inactive).

Q: What about the GI50 (CAKI-1) of the same molecule?
A: Its GI50 is 21.9 µM (inactive).

Q: What about the GI50 (M14) of the same molecule?
A: Its GI50 is 23.8 µM (inactive).

Q: And the GI50 (OVCAR-4)?
A: The GI50 was 26.1 µM (inactive).

Q: What about the GI50 (HCT-15) of the same molecule?
A: The GI50 was 10 µM.

Q: And the GI50 (HOP-62)?
A: The GI50 was 24.4 µM (inactive).

Q: What about the GI50 (K562) of the same molecule?
A: The GI50 was 16.1 µM (inactive).

Q: And the GI50 (MCF7)?
A: Its GI50 is 12.9 µM (inactive).

Q: What about the GI50 (SK-OV-3) of the same molecule?
A: The GI50 was 15.3 µM (inactive).
